Test results: patent US20190331666A1, “METHODS FOR DRUG DISCOVERY USING STEM CELL-DERIVED SCHWANN CELLS” (MEMORIAL SLOAN-KETTERING CANCER CENTER, priority 2016, published 2019)
pIC50: −log10 of the molar value.

How the values were obtained:
[1] = system: high glucose treated hESC-SCs; assay: High content screening for drugs reversing glucose-mediated SC cytotoxicity (Prestwick library); format: cell-based, human; details: 30 mM glucose, compounds at 1 μM, 72 hours
Procedure: The chemical compound screening was performed using the Prestwick Chemical Library®. RFP-labeled hESC-SCs were plated in 384 well plates (1,000/well) and treated with 30 mM glucose immediately before addition of the compounds. The compounds were added at 1 μM concentration. 72 hours later, the plates were treated with DAPI for ten minutes, washed twice and fixed for total plate imaging. The number of viable cells was quantified for each well by counting the number of DAPI negative, RFP positive cells. The percentage of dead cells were calculated for each well by dividing the number of DAPI positive cells by total RFP positive cells.
Data are presented as mean±SEM and were derived from at least 3 independent experiments. Statistical analysis was performed using the Student t-test (comparing 2 groups) or ANOVA with Dunnett test (comparing multiple groups against control). Distribution of the raw data approximated normal distribution (Kolmogorov Smirnov normality test) for data with sufficient number of replicates to test for normality. Survival analysis was performed using log rank (Mantel-Cox) test. Z-scores for primary hits were calculated as Z=(x−μ)/σ. X is the migration score value and is 3 for all hit compounds. μ is the mean migration score value and a is the standard deviation for all compounds and DMSO controls

[2] = system: high glucose treated hESC-SCs; assay: Dose response validation, SC viability / cell death (LDH); format: cell-based, human
Procedure: To monitor the viability of SCs, cells were assayed for LDH activity using CytoTox 96 cytotoxicity assay kit (Promega, G1780). Briefly, the cells were plated in 96 well plates at 30,000 cells/cm^2. The supernatant and the cell lysate is harvested 24 hours later and assayed for LDH activity using a plate reader (490 nm absorbance). Viability was calculated by dividing the LDH signal of the lysate by total LDH signal (from lysate plus supernatant). The cells were cultured in Schwann cell medium (Sciencell, 1701) on PO/LM/FN coated dishes during the assay. For validation of the selected hit compound (Bupropion HCL, Sigma, B102), the cells were treated with various concentrations of the compound for dose response analysis. The highest non-toxic dose (0.7 μM-based on optimal sorbitol reduction and viability) was used for follow-up experiments.

[3] = system: sorbitol levels in hESC-SCs; assay: Sorbitol measurement in hESC-SCs; format: cell-based, human; details: high glucose treated hESC-SCs
Procedure: High glucose, low glucose and drug treated SCs and sensory neurons were subjected to biochemical assays for Sorbitol (abcam, ab118968), glucose (abcam, ab65333), Pyruvate (abcam, ab65342) and 2DG uptake (abcam, ab136955) measurements according to manufacturer's instructions. Data was normalizing according to cell numbers and averaged over 3-6 biological replicates. For validation of the selected hit compound (Bupropion HCL, Sigma, B102), the cells were treated with various concentrations of the compound for dose response analysis. The highest non-toxic dose (0.7 μM-based on optimal sorbitol reduction and viability) was used for follow-up experiments.

[4] = system: intracellular glucose levels in hESC-SCs; assay: Intracellular glucose measurement in hESC-SCs; format: cell-based, human; details: high glucose
From the text: (§1) High glucose, low glucose and drug treated SCs and sensory neurons were subjected to biochemical assays for Sorbitol (abcam, ab118968), glucose (abcam, ab65333), Pyruvate (abcam, ab65342) and 2DG uptake (abcam, ab136955) measurements according to manufacturer's instructions. Data was normalizing according to cell numbers and averaged over 3-6 biological replicates.

[5] = system: glucose uptake in hESC-SCs; assay: Glucose (2DG) uptake in hESC-SCs; format: cell-based, human; details: high glucose
From the text: as §1

[6] = system: pyruvate levels in hESC-SCs; assay: Pyruvate measurement in hESC-SCs; format: cell-based, human; details: high glucose
From the text: as §1

[7] = system: STZ-treated C57BL6 mice; assay: Blood glucose in STZ-treated diabetic mice; format: in vivo; details: oral in chow ~300 mg/kg daily
Procedure: (§2) All procedures were performed following NIH guidelines, and were approved by the local Institutional Animal Care and Use Committee (IACUC). 3-8 weeks old male C57BL6 mice were treated with one dose IP injection of streptozotocin (180 mg/kg, sigma, 85882) to induce pancreatic beta cell death. Blood glucose levels was measured using a standard glucometer (Freestyle Lite) in weekly intervals starting at one week post-treatment, by drawing a drop of blood from tail tip. BP treatment was initiated one week post-streptozotocin treatment. BP was mixed with standard chow at 1.63 mg/gram of chow to be administered orally at ˜300 mg/kg daily. The dose was calculated on the basis of average daily food intake (5.5 gram/day) and initial body weight (30 grams).

[8] = system: STZ-treated C57BL6 mice; assay: Mouse thermal sensitivity (hot plate) test in STZ-treated mice; format: in vivo; details: seven and eight weeks post STZ, oral in chow ~300 mg/kg daily
Procedure: as §2, with “grams). Thermal nociception was assessed using the hot plate test. The hot plate (Ugo Basile 35100) consisted of a metal surface (55° C.) with a transparent plexiglass cylinder to contain the mouse. […] Typical baseline latencies are 5-10 seconds, with maximal latencies of 30 seconds.” for “grams).”

[9] = system: STZ-treated C57BL6 mice; assay: TUNEL staining of sciatic nerves of STZ-treated mice; format: in vivo; details: oral in chow ~300 mg/kg daily
Procedure: as §2

[10] = system: STZ-treated C57BL6 mice; assay: Transmission electron microscopy of myelin in sciatic nerves of STZ-treated mice; format: in vivo; details: oral in chow ~300 mg/kg daily
Procedure: as §2

[11] = system: patients suffering from neuropathic pain; details: cited from earlier work
[12] = system: rodent GSK3β homologs; details: cited from earlier work

| Compound | enhancing the viability of high glucose treated hESC-SCs (primary screen) [1] | levels inducing gradual dose-dependent toxicity ([2]; hESC-SCs) | rescuing SC viability ([2]; high glucose treated hESC-SCs, various concentrations) | pIC50 ([3]; Homo sapiens, read-out: IC50 (dose-response in rescuing SC viability and in decreasing sorbitol levels)) | highest non-toxic dose (based on optimal sorbitol reduction and viability) [3] [µM] | dose of maximum effect ([3]; dose used for all further studies) | intracellular glucose levels [4] | glucose uptake [5] | levels of pyruvate [6] | blood glucose levels [7] | response time to thermal stimulation (latency of hind paw withdrawal) [8] | TUNEL+ apoptotic cells in the sciatic nerves [9] | percentage of damaged myelin in the sciatic nerves [10] | benefit in the treatment of neuropathic pain [11] | IC50 values against rodent GSK3β homologs [12] |
| --- | --- | --- | --- | --- | --- | --- | --- | --- | --- | --- | --- | --- | --- | --- | --- |
| CC(NC(C)(C)C)C(=O)c1cccc(Cl)c1.Cl (stereo not drawn) [BP, 2-(tert-butylamino)-1-(3-chlorophenyl)propan-1-one;hydrochloride] | most potent compound | above 2 μM | dose-response | 6.58 | 0.7 | 0.7 | reduced | without affecting | increased | does not affect glucose levels | significantly improved response time | significantly fewer apoptotic cells | significantly reduced | some benefit |  |
| Cc1c[nH]c(-c2cnc(NCCNc3ccc(C#N)cn3)nc2-c2ccc(Cl)cc2Cl)n1 [CHIR99021, 6-(2-(4-(2,4-dichlorophenyl)-5-(4-methyl-1H-imidazol-2-yl)pyrimidin-2-ylamino)ethylamino)nicotinonitrile] |  |  |  |  |  |  |  |  |  |  |  |  |  |  | nanomolar |
